Reference: paper PMC8868297, “Stapling of Peptides Potentiates the Antibiotic Treatment of Acinetobacter baumannii In Vivo” (Antibiotics, 2022)
Bridge positions count the residues as written; N and C are the ends. Square brackets hold non-standard residues; d marks the D form. Ends that are not written are not given here. Peptide text beside a SMILES is read from it. R8 = C=CCCCCCC[C@@](C)(N)C(=O)O; S5 = C=CCCC[C@](C)(N)C(=O)O

What was measured:
sheep red blood cells = conditions: sheep RBCs in DMEM, 1 h, 32 °C, OD405; for hemolysis at 50 µM: relative to 1% Triton-X100, negative control polymyxin B nonapeptide
Protocol: Defibrinated sheep blood was purchased from BioTrading (LOT 21118SG66, Mijdrecht, The Netherlands) and kept at 4 °C. As previously described by Phan et al., red blood cells (RBCs) were pelleted by centrifugation at 600× g for 7 min at 4 °C and gently resuspended in phenol red-free Dulbecco’s Modified Eagle Medium (DMEM, Gibco 21063-029, ThermoFisher Scientific, Waltham MA, United States). This was repeated five times until the supernatant appeared colorless. In the meantime, 10-fold dilution series of the peptides at 50 μM, 5 μM and 0.5 μM in 50 µl DMEM, 1% DMSO were made in polypropylene microtiter plates (Ratiolab, L6018123, Dreieich, Germany). Triton-X100 (1%, Sigma-Aldrich T-8787) and DMSO (10%, Sigma-Aldrich D-8418) were used as positive and negative controls, respectively. Polymyxin B (Sigma-Aldrich, p-1411) and polymyxin B nonapeptide (Sigma-Aldrich, p-2076) were used as reference lytic and non-lytic peptides. Then, 50 µL of RBCs was added to each well. The plate was sealed and incubated at 5% CO2 for one hour at 32 °C, after which the plate was centrifuged at 610× g for 5 min at room temperature. Next, 70 µL supernatant was removed and transferred to a flat-bottomed polystyrene microtiter plate (Costar, REF3779) and the OD405, as a measure of released hemoglobin, was determined using a microplate reader (Synergy H1 Multi-Mode Reader or Synergy HTX Multi-Mode Reader, BioTek). Percentage of hemolysis was calculated using the following equation: (2) % hemolysis=(absorbance test sample)-(absorbance diluent)/(absorbance positive control)-(absorbance diluent)

zebrafish larvae = experiment: Toxicity in zebrafish larvae (survival after caudal vein injection); conditions: survival of uninfected larvae vs vehicle (50% DMSO), five days
Protocol: Transparent Casper zebrafish (Danio rerio) larvae were infected and treated according to protocols described by Van der Sar et al. and Bernard et al. [43, 44]. In short, zebrafish larvae collected from a laboratory-breeding colony kept at 24 °C and a 12:12 h dark/light regime. Larvae were selected based on morphology according to hours post fertilization (hpf) and kept at 28 °C. All protocols followed the international guidelines on the protection of animals used for scientific purposes specified by the EU Directive 2010/63/EU, which allows zebrafish larvae to be used up to the moment of free-living (5–7 dpf). Larvae were dechorionated at 28 hpf and anaesthetized in 0.2% tricaine methanesulfonate (MS222, Fluka A-5040). Larvae were individually infected with 1 nL, containing approximately 100–150 CFU (1–1.5 CFU/mL), of Gram-negative bacteria via microinjection of the caudal vein as described previously [33]. One hour post infection, larvae were treated with cationic (stapled) peptides, antibiotics or a combination of the two via another microinjection of 1 nL in the caudal vein. To correct dilution of the treatment upon injection in the vein (1 nL in 250 nL zebrafish larvae volume), treatments were diluted in 0.1% phenol red (Sigma-Aldrich, p-0290) in phosphate buffered saline (PBS) to 250 times the concentration as tested in vitro. Zebrafish larvae were kept at 30 °C throughout the experiment and survival of the larvae, based on heartbeat, was determined every 24 h for 5 days.

A. baumannii 1757 = experiment: MIC / checkerboard synergy assay (also with added LPS); assay type: cell-based, Acinetobacter baumannii; conditions: mean ± SD; for MIC (compound alone): LB broth, MIC = 90% of growth prevented, OD600 over 12 h; for MIC, + Rd-LPS (F583): LB medium with soluble deep rough LPS 15 µg/ml; for MIC, + Sm-LPS (055:B5): LB medium with soluble smooth LPS 15 µg/ml; for MIC, No supplement: LB medium without supplement (Table S4)
Protocol: (§1) Minimum inhibitory concentrations of the peptides and antibiotics were determined according to the protocol described by Wiegand et al.. Briefly, two-fold dilution series of cationic peptides in 50 µL volume of LB broth containing 2% DMSO were made in polypropylene 96-well microtiter plates (Ratiolab, L6018123, Dreieich, Germany). The optical density at 600 nm (OD600) of growing bacterial cultures was followed, and at mid-log-phase (OD600 ~0.4–0.5) cultures were diluted to OD600 0.02 and 50 µL was added to the wells, resulting in a total volume of 100 µl, an OD600 of ~0.01 and a DMSO concentration of 1%. An OD600 of ~0.01 accounted for approximately 3 × 10^8 colony forming units per mL (CFU/mL) for A. baumannii, 1 × 10^7 CFU/mL for E. coli and 5 × 10^7 CFU/mL for K. pneumoniae as determined by plate counting.
(§2) In a similar manner, two-fold dilution series of antibiotics were made in polystyrene microtiter plates (Costar, REF3779, Corning NY, United States) in 70 µL volume of LB broth. Then, 50 µL of the antibiotic series was transferred to the peptide containing polypropylene plate, resulting in a checkerboard titration of a peptide on the vertical axis and an antibiotic on the horizontal axis. To some checkerboard assays 15 µg/mL isolated smooth (sm) LPS (from E. coli O55:B5, Sigma-Aldrich, L2880), rough (Ra) LPS (from E. coli EH100, Sigma-Aldrich, L9641) or deep rough (Rd) LPS (from E. coli F583, Sigma-Aldrich, L6893) LPS was added to the LB broth. Mid-log phase cultures were diluted to OD600 0.1 and 10 µL culture was added to each well of the microtiter plate, resulting in a total volume of 110 µL and an OD600 of ~0.01 (~3 × 10^8 CFU/mL), and the OD600 was measured every 15 min for 12 h using the microplate reader. First, the MIC values of the antibiotics alone and the MIC values of the peptides alone were determined as described previously. Similarly, the MIC values of the antibiotics in combination with the different peptides and the MIC values of the peptides in combination with the antibiotics were determined (the fractional inhibitory concentrations (FIC)). […] An FICindex between 0.5 and 1 was considered to be an additive effect.

circular dichroism = conditions: 5 mM sodium phosphate; pH 7.5; 20 °C; 7.5 uM
[1] = normal pooled human serum, 100 µM peptide from 10 mM DMSO stock, 37 °C, samples at 0, 15, 60 min, TCA precipitation, LC-MS TIC vs carbamazepine internal standard, triplicate; Figure 2C
Protocol: The stability measurements were performed in normal pooled human serum (PHS). The respective peptide was diluted to a final concentration of 100 μM in the aforementioned human serum (from 10 mM peptide stocks in DMSO). Then, 100 μM Carbamazepine was used as an internal standard; 60 μL of aforementioned peptide/Carbamazepine solution in PHS was incubated for 1h at 37 °C/750 rpm and 20 μL samples were taken after 0 min, 15 min and 60 min. Next, 1.5 μL of TCA was added to the sample to precipitate serum proteins. The samples were subsequently incubated on ice for 10 min and then centrifuged (12,000× g, 10 min). Then, 5 μL of supernatant was diluted in 20 μL of H2O/MeCN + 0.1% TFA. The sample was subsequently analyzed by LCMS on an Nucleodur C4-column (Macherey Nagel CC125/4 Nucleodur C4 Gravity, 5 µm) using a linear aqueous MeCN gradient containing FA (0.1%, v/v) and TFA (0.01%, v/v) as ion pair reagent (5–95%, 8 min). Peptides were quantified using the total ion count (TIC) of selected molecular ions. Remaining peptide quantities were calculated by normalizing the peptide peak areas using the internal standard peak areas and subsequently comparing the obtained value with the 0 min measurement. All measurements were performed in triplicate.

K. pneumoniae 94 = experiment: MIC / checkerboard synergy assay; assay type: cell-based, Klebsiella pneumoniae; conditions: compound alone; LB broth, MIC = 90% of growth prevented, OD600 over 12 h; mean ± SD
Protocol: as §1, §2

K. pneumoniae 613 = experiment: MIC / checkerboard synergy assay; assay type: cell-based, Klebsiella pneumoniae; conditions: compound alone; LB broth, MIC = 90% of growth prevented, OD600 over 12 h; mean ± SD
Protocol: as §1, §2

K. pneumoniae 821 = experiment: MIC / checkerboard synergy assay; assay type: cell-based, Klebsiella pneumoniae; conditions: compound alone; LB broth, MIC = 90% of growth prevented, OD600 over 12 h; mean ± SD
Protocol: as §1, §2

A. baumannii 1681 = experiment: MIC / checkerboard synergy assay; assay type: cell-based, Acinetobacter baumannii; conditions: compound alone; LB broth, MIC = 90% of growth prevented, OD600 over 12 h; mean ± SD
Protocol: as §1, §2

A. baumannii 2196 = experiment: MIC / checkerboard synergy assay; assay type: cell-based, Acinetobacter baumannii; conditions: compound alone; LB broth, MIC = 90% of growth prevented, OD600 over 12 h; mean ± SD
Protocol: as §1, §2

Compound	hemolysis at 50 µM (sheep red blood cells)	Log2FoldChange compared to vehicle injected (zebrafish larvae)	MIC (compound alone) (A. baumannii 1757)	helicity (circular dichroism)	stability in human serum (in words) [1]	MIC (compound alone) (K. pneumoniae 94)	MIC (compound alone) (K. pneumoniae 613)	MIC (compound alone) (K. pneumoniae 821)	hemolysis in the concentration range tested (in words) (sheep red blood cells; 0.5, 5 and 50 µM)	MIC, + Rd-LPS (F583) (A. baumannii 1757)	MIC, + Sm-LPS (055:B5) (A. baumannii 1757)	MIC, No supplement (A. baumannii 1757)	MIC (compound alone) (A. baumannii 1681)	MIC (compound alone) (A. baumannii 2196)	MIC, + Ra-LPS (EH100) (A. baumannii 1757; LB medium with soluble rough LPS 15 µg/ml)
CC(C)C[C@H](NC(=O)[C@H](Cc1c[nH]c2ccccc12)NC(=O)[C@H](CCCNC(=N)N)NC(=O)[C@H](CC(C)C)NC(=O)[C@]1(C)CCCC=CCCC[C@](C)(NC(=O)[C@H](CCCNC(=N)N)NC(=O)[C@@H](N)CCCNC(=N)N)C(=O)N[C@@H](Cc2ccccc2)C(=O)N[C@@H](CCCNC(=N)N)C(=O)N[C@@H](CCCNC(=N)N)C(=O)N1)C(N)=O [Peptide L6S1] (H-RR[S5]FRR[S5]LRWL-NH2; staple 3-7)	significantly more hemolytic to the RBCs than the negative control	0.04	1.80 ± 2.68 µM	28%											
CC(C)C[C@H](NC(=O)[C@H](CCCNC(=N)N)NC(=O)[C@@H](N)CCCNC(=N)N)C(=O)N[C@@H](Cc1ccccc1)C(=O)N[C@@H](CCCNC(=N)N)C(=O)N[C@@H](CCCNC(=N)N)C(=O)N[C@@]1(C)CCCC=CCCC[C@@](C)(C(N)=O)NC(=O)[C@H](Cc2c[nH]c3ccccc23)NC(=O)[C@H](CCCNC(=N)N)NC(=O)[C@H](CC(C)C)NC1=O [Peptide L6S2] (H-RRLFRR[S5]LRW[S5]-NH2; staple 7-11)	significantly more hemolytic to the RBCs than the negative control	-1.21	0.93 ± 0.69 µM	19%	highest stabilities										
CC[C@H](C)[C@@H]1NC(=O)[C@H](CCCNC(=N)N)NC(=O)[C@H](CCCNC(=N)N)NC(=O)[C@](C)(NC(=O)[C@H](CC(C)C)NC(=O)[C@H](CCCNC(=N)N)NC(=O)[C@@H](N)CCCNC(=N)N)CCCCCCC=CCCC[C@@](C)(C(N)=O)NC(=O)[C@H](Cc2c[nH]c3ccccc23)NC(=O)[C@H](CCCNC(=N)N)NC(=O)[C@H](CC(C)C)NC1=O [Peptide L6S3] (H-RRL[R8]RRILRW[S5]-NH2; staple 4-11)	did not cause hemolysis	-0.40	1.47 ± 0.48 µM	23%											
CC(C)C[C@H](NC(=O)[C@H](Cc1c[nH]c2ccccc12)NC(=O)[C@H](CCCCN)NC(=O)[C@H](CCCCN)NC(=O)[C@]1(C)CCCC=CCCC[C@](C)(NC(=O)[C@H](CCCNC(=N)N)NC(=O)[C@@H](N)CCCCN)C(=O)N[C@@H](C(C)C)C(=O)N[C@@H](CCC(N)=O)C(=O)N[C@@H](CCCNC(=N)N)C(=O)N1)C(=O)N[C@@H](CCCNC(=N)N)C(N)=O [Peptide L8S1] (H-KR[S5]VQR[S5]KKWLR-NH2; staple 3-7)	did not cause hemolysis	-0.45	12.76 ± 8.91 µM	49%											
CC[C@H](C)[C@H](NC(=O)[C@H](CCCNC(=N)N)NC(=O)[C@@H](N)CCCCN)C(=O)N[C@H](C(=O)N[C@@H](CCC(N)=O)C(=O)N[C@@H](CCCNC(=N)N)C(=O)N[C@@]1(C)CCCC=CCCC[C@@](C)(C(=O)N[C@@H](CCCNC(=N)N)C(N)=O)NC(=O)[C@H](Cc2c[nH]c3ccccc23)NC(=O)[C@H](CCCCN)NC(=O)[C@H](CCCCN)NC1=O)C(C)C [Peptide L8S2] (H-KRIVQR[S5]KKW[S5]R-NH2; staple 7-11)	did not cause hemolysis	0.11	8.69 ± 4.29 µM	25%											
KRIVQRIKKWLR-NH2 [Peptide L8]		-0.63	2.53 ± 1.02 µM	16%		165,45±1,91 µM	23,74±29,65 µM	43,37±28,38 µM	did not cause hemolysis	10.83 ± 8.12 µM	0.53 ± 0.59 µM	8.78 ± 11.15 µM	5,85±0,47 µM	8,54±5,31 µM	
RRLFRRILRWL-NH2 [Peptide L6]	up to 50%	-0.04	1.1 ± 1.20 µM	15%		0,63±0,29 µM	0,65±0,15 µM	2,44±2,17 µM		0.34 ± 0.40 µM	9.85 ± 16.34 µM	1.2 ± 0.43 µM	0,66±0,13 µM	0,91±0,59 µM	2.50 ± 3.83 µM
